Values quoted from earlier work as cited in patent US20090221469A1, “USE OF SOY KEFIR POWDER FOR REDUCING PAIN, BLOOD PRESSURE AND INFLAMMATION” (KCLM RESEARCH IN NUTRITION INC., priority 2006, published 2009).

Tests used:
[1] = test system: patients with neuralgia or moderate to severe nonmalignant pain; settings: treatment of neuralgia (Stacey et al., 2004)

| Molecule | SF-36 improvement of mean scores for bodily pain [1] [points] | half-lives [h] |
| --- | --- | --- |
| NCC1(CC(=O)O)CCCCC1 [gabapentin] | 9.2 |  |
| isoflavones |  | 4 to 8 |
